Measured values: patent US6835715B1, “Mammalian dihydroouabain-like factor and therapeutic compositions” (University of Louisville Research Foundation, Inc., priority 1999, dated 2004)

Legend:
[1] = system: Na+,K+-ATPase α-subunits (porcine cerebral cortical tissue); test: Ouabain-stimulated 32Pi phosphorylation of Na+,K+-ATPase alpha subunit; format: biochemical; details: equimolar concentrations; ouabain = 100%; listed as Dho
Protocol: The ouabain-stimulated phosphorylation of Na^+, K^+-ATPase by phosphate was performed as described in Huang et al., (1994) with some minor modifications. Since the covalently phosphorylated intermediate of the sodium pump formed from inorganic phosphorous (^32Pi) is alkali-labile (acid-stable phosphenzyme intermediate), acidic pH gel electrophoresis was used to resolve the radioactively labeled protein species. Briefly, 60 μl aliquots containing 100-200 μg of porcine cerebral cortical tissues (PCC) were pre-incubated at room temperature for 25 min. with 20 μl of sample in the reaction buffer (50 mM Tris-HCL and 2 mM MgCl2, pH 7.2). A positive control was pre-incubated with 20 μl of a 1 mM ouabain solution also, a negative control was pre-incubated with 20 μl of buffer alone. 10 μl of ^32Pi (1 mCi in 100 μl) was diluted with 250 μl of phosphoric acid and purified through 0.2 μm filter to remove polyphosphates. At the end of the incubation, 20 μl of the ^32Pi filtrate (30 μM, 8 uCi) was added to the mixture and allowed to incubate at room temperature for an additional 15 minutes. The reaction was terminated by the addition of 1 ml 8% HCLO4 which precipitated the proteins and left unincorporated ^32Pi in solution. […] Autoradiograms were quantitated using a soft laser scanning densitometer. […]

anti-ouabain antibody = test: Ouabain EIA, cross-reactivity with anti-ouabain antibody; format: binding; details: for cross-reactivity with ouabain antibody: ouabain = 100%
Protocol: UV spectral properties, molar absorptivity, and concentrations of these endogenous factors were calculated.
(§1) OLF was measured using ouabain EIA. This assay uses ouabain covalently bound to the microtiter plate to compete with unbound samples or standards for binding to a constant amount of anti-ouabain antibody (Harris et al., 1991). Dihydroouabain-like immunoreactivity was measured by EIA using a polyclonal dihydroouabain-specific antibody prepared according to our specifications by HTI Bio-Product Inc (Ramona, Calif.). The antibody production strategy was as follows: dihydroouabain (dho) was conjugated to keyhole limpet hemocyanin (KLH) through the rhamnose sugar ring and the resulting conjugate was injected in three rabbits. Blood samples from the rabbits were drawn three weeks after the primary injection, and every two weeks after subsequent booster injections.
Two specific antibodies, one against ouabain and one against dihydroouabain, were used to characterize OLF and DH-OLF. Both of these antibodies are sensitive to structural changes at the lactone ring epitope of these molecules. […] The concentrations were determined using molar absorptivities as described above.

[2] = system: anti-dihydroouabain antibody; test: Dihydroouabain EIA, cross-reactivity with anti-dihydroouabain antibody; format: binding, rabbit; details: dihydroouabain = 100%
Protocol: as §1, with “injections. […]” for “injections.”
Briefly, immunoassay plates were coated with approximately 0.5 μg dho-BSA conjugate/well for a minimum of 18 hrs. at 4° C. […] Color development was monitored at 650 nm for a maximum of 30 min. after which the reaction was stopped with TMB Stop buffer and the plate was then read at 450 nm. The readings were adjusted with a system blank and for non-specific binding.
Two specific antibodies, one against ouabain and one against dihydroouabain, were used to characterize OLF and DH-OLF. […] The concentrations were determined using molar absorptivities as described above.

[3] = molecular target: porcine cerebral cortex Na+,K+-ATPase; test: Inhibition of Na+,K+-ATPase catalytic activity (phosphate release from ATP); format: biochemical
Protocol: Dried frozen powder of porcine cerebral cortical tissue (PCC) was reconstituted at 1 Unit/ml in buffer containing; 50 mM Tris-HCl and 2 mM MgCl2, at a pH of 7.2. The reconstituted tissue was then washed three times and resuspended in the same buffer. The protein concentration was determined by BIO-RAD Protein Assay (Bio-Rad, Hercules, Calif.), adjusted to about 1 mg/ml and used both in the catalytic inhibition and ouabain-stimulated phosphorylation experiments (PAGE and Western analysis). The inhibition assay was performed briefly by pipetting 20 μl of sample containing the desired concentration of glycoside (Tris buffer was used for no-inhibitor control) into a well of a microtiter plate placed in a 37° C. water bath for 10 minutes. […] After the incubation period, we added 150 μl of molybdate solution (per liter, 1.0 mmol of molybdate, 11 mmol of sulfuric acid, and 142 ml of Tween 80: methanol solution (12:88 by vol). After 30 minutes of incubation, color development was allowed to proceed for a maximum of 30 min. after which the color intensity was measured by pipetting 150 μl of the reaction mixture from each well to a corresponding well on another microtiter plate. The color intensity is proportional to the release of phosphate ions which is a direct indicator of ATP breakdown and therefore NKA activity. The absorbances were measured simultaneously at 340 nm. […]

Which “phosphorylation activity relative to ouabain” value [1] does the source give for `C[C@@H]1O[C@@H](O[C@H]2C[C@@H](O)[C@]3(CO)[C@H]4[C@H](O)C[C@]5(C)[C@@H]([C@@H]6COC(=O)C6)CC[C@]5(O)[C@@H]4CC[C@]3(O)C2)[C@H](O)[C@H](O)[C@H]1O` [dihydroouabain, Dihydroouabain] here?
The value was 82%.

What about the “affinity for anti-ouabain antibody” value (anti-ouabain antibody) of the same compound?
Its value is “little affinity”.

What about the “cross-reactivity with ouabain antibody” value (anti-ouabain antibody) of the same compound?
The value was 2-3%.

What about the “cross-reactivity with dihydroouabain antibody” value [2] of the same compound?
Its value is 100%.

With `C[C@@H]1O[C@@H](O[C@H]2C[C@@H](O)[C@]3(CO)[C@H]4[C@H](O)C[C@]5(C)[C@@H](C6=CC(=O)OC6)CC[C@]5(O)[C@@H]4CC[C@]3(O)C2)[C@H](O)[C@H](O)[C@H]1O` [ouabain, Ouabain] as the compound, how does the “cross-reactivity with ouabain antibody” value (anti-ouabain antibody) read?
Its value is 100%.

What about the “cross-reactivity with dihydroouabain antibody” value [2] of the same compound?
Its value is 0.1%.

Which IC50 ([3]; porcine cerebral cortex enzyme, read-out: IC50 for inhibiting the catalytic activity of the Na+,K+-ATPase enzyme) does the source give for `C[C@@H]1O[C@@H](O[C@H]2C[C@@H](O)[C@]3(CO)[C@H]4[C@H](O)C[C@]5(C)[C@@H]([C@@H]6COC(=O)C6)CC[C@]5(O)[C@@H]4CC[C@]3(O)C2)[C@H](O)[C@H](O)[C@H]1O` [dho-B] here?
The IC50 was 1700 nM.

And the “times less potent than ouabain for inhibition of Na+,K+-ATPase” value ([3]; relative to ouabain)?
The value was 3 times.
